In the supplement of paper PMC10307832:

What was measured:
Assay in all cases: relative viability (nuclei count vs DMSO), 5 days (fraction); higher = more cells survive
AT9283 + Bortezomib = compound: O=C(Nc1c[nH]nc1-c1nc2ccc(CN3CCOCC3)cc2[nH]1)NC1CC1 [AT9283] + CC(C)C[C@H](NC(=O)[C@H](Cc1ccccc1)NC(=O)c1cnccn1)B(O)O [Bortezomib] (partner 0.002 µM)
How it was run: (§1)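 Relative viability equals treated-well nuclei counts divided by vehicle-well nuclei counts. Counts came from 4× images of lung cancer cell lines grown in 1536-well plates for 5 days after pin-tool dosing on the day after seeding. Dosing used one drug alone or a fixed anchor-drug dose plus five library-drug doses (not always all listed) in √10 steps, and values are medians of duplicate plates.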

AT9283 + Linsitinib = compound: O=C(Nc1c[nH]nc1-c1nc2ccc(CN3CCOCC3)cc2[nH]1)NC1CC1 [AT9283] + C[C@]1(O)C[C@@H](c2nc(-c3ccc4ccc(-c5ccccc5)nc4c3)c3c(N)nccn32)C1 [Linsitinib] (partner 1 µM)
How it was run: as §1

Erlotinib + Alpelisib = compound: C#Cc1cccc(Nc2ncnc3cc(OCCOC)c(OCCOC)cc23)c1 [Erlotinib] + Cc1nc(NC(=O)N2CCC[C@H]2C(N)=O)sc1-c1ccnc(C(C)(C)C(F)(F)F)c1 [Alpelisib] (partner 2 µM)
How it was run: as §1

Erlotinib + OSI-027 = compound: C#Cc1cccc(Nc2ncnc3cc(OCCOC)c(OCCOC)cc23)c1 [Erlotinib] + COc1cccc2cc(-c3nc([C@H]4CC[C@H](C(=O)O)CC4)n4ncnc(N)c34)[nH]c12 [OSI-027] (partner 0.5 µM)
How it was run: as §1

AT9283 + Dasatinib = compound: O=C(Nc1c[nH]nc1-c1nc2ccc(CN3CCOCC3)cc2[nH]1)NC1CC1 [AT9283] + Cc1nc(Nc2ncc(C(=O)Nc3c(C)cccc3Cl)s2)cc(N2CCN(CCO)CC2)n1 [Dasatinib] (partner 0.075 µM)
How it was run: as §1

Row | Cell Line | relative viability (AT9283 + Bortezomib; first compound 0.003 µM) | relative viability (AT9283 + Bortezomib; first compound 0.03 µM) | relative viability (AT9283 + Bortezomib; first compound 0.09487 µM) | relative viability (AT9283 + Bortezomib; first compound 0.3 µM) | relative viability (AT9283 + Linsitinib; first compound 0.003 µM) | relative viability (AT9283 + Linsitinib; first compound 0.03 µM) | relative viability (AT9283 + Linsitinib; first compound 0.09487 µM) | relative viability (AT9283 + Linsitinib; first compound 0.3 µM) | relative viability (Erlotinib + Alpelisib; first compound 0.02 µM) | relative viability (Erlotinib + Alpelisib; first compound 0.6325 µM) | relative viability (Erlotinib + Alpelisib; first compound 2 µM) | relative viability (Erlotinib + OSI-027; first compound 0.02 µM) | relative viability (Erlotinib + OSI-027; first compound 0.2 µM) | relative viability (Erlotinib + OSI-027; first compound 0.6325 µM) | relative viability (Erlotinib + OSI-027; first compound 2 µM) | relative viability (AT9283 + Dasatinib; first compound 0.003 µM) | relative viability (AT9283 + Dasatinib; first compound 0.03 µM) | relative viability (AT9283 + Dasatinib; first compound 0.09487 µM) | relative viability (AT9283 + Dasatinib; first compound 0.3 µM) | relative viability (Erlotinib + Alpelisib; first compound 0.2 µM)
1 | LCLC-97TM1 | 0.49 | 0.09 | 0.139 | 0.0748 | 0.184 | 0.156 | 0.107 | 0.0936 | 0.218 | 0.316 | 0.259 | 0.697 | 0.553 | 0.504 | 0.489 | 0.798 | 0.492 | 0.255 | 0.162 | –
2 | LCLC-103H | 1.08 | 0.935 | 0.641 | 0.538 | 0.952 | 1.04 | 1.07 | 0.419 | 0.882 | 0.994 | 0.91 | 0.537 | 0.469 | 0.43 | 0.417 | 0.433 | 0.486 | 0.428 | 0.296 | 0.953
3 | LOU-NH91 | 0.436 | 0.447 | 0.438 | 0.389 | 0.903 | 0.968 | 0.604 | 0.464 | 0.539 | 0.527 | 0.512 | 0.506 | 0.47 | 0.473 | 0.43 | 0.524 | 0.562 | 0.366 | 0.296 | 0.495
4 | LU99A | 1.04 | 0.463 | 0.162 | 0.229 | 0.409 | 0.196 | 0.165 | 0.165 | 0.644 | 0.562 | 0.333 | 0.295 | 0.303 | 0.284 | 0.259 | 0.546 | 0.195 | 0.229 | 0.247 | 0.478
5 | LXF-289 | 0.972 | 0.992 | 0.184 | 0.131 | 1 | 0.47 | 0.132 | 0.12 | 1.08 | 0.976 | 0.913 | 0.79 | 0.766 | 0.721 | 0.551 | 0.227 | 0.106 | 0.0281 | 0.029 | 1
6 | NCI-H23 | 0.852 | 1.01 | 0.557 | 0.236 | 0.801 | 0.338 | 0.232 | 0.145 | 0.763 | 0.816 | 0.634 | 0.769 | 0.519 | 0.509 | 0.407 | 0.726 | 0.67 | 0.464 | 0.327 | 0.593
7 | NCI-H322M | 1.25 | 1.34 | 0.861 | 0.407 | 0.932 | 0.682 | 0.478 | 0.425 | 0.693 | 0.589 | 0.335 | 0.533 | 0.483 | 0.406 | 0.394 | 0.257 | 0.236 | 0.224 | 0.223 | 0.745
8 | NCI-H460 | 0.922 | 0.905 | 0.257 | 0.032 | 0.761 | 0.0766 | 0.0186 | 0.0256 | 0.585 | 0.492 | 0.399 | – | 0.547 | 0.469 | 0.217 | 0.395 | 0.495 | 0.265 | 0.0688 | 0.415
9 | NCI-H520 | 0.574 | 0.241 | 0.182 | 0.168 | 0.926 | 0.37 | 0.291 | 0.181 | 0.932 | 1.17 | – | 0.282 | 0.387 | 0.271 | 0.226 | 0.2 | 0.174 | 0.147 | 0.145 | 0.934
10 | NCI-H596 | 0.999 | 1.14 | 0.947 | 0.772 | 1.06 | 1.01 | 0.912 | 0.564 | 0.444 | 0.492 | 0.376 | 0.675 | 0.528 | 0.537 | 0.408 | 0.59 | 0.597 | 0.565 | 0.297 | 0.456
11 | NCI-H647 | 0.822 | 0.145 | 0.13 | 0.0938 | 1.11 | 0.17 | 0.151 | 0.11 | 0.955 | – | 1.02 | 0.594 | 0.606 | – | 0.449 | 0.15 | 0.114 | 0.036 | 0.0661 | 1.18
12 | NCI-H650 | 0.652 | 0.775 | 0.561 | 0.14 | 0.7 | 0.601 | 0.262 | 0.164 | 1.22 | 1.11 | 1.06 | 0.506 | 0.594 | 0.515 | 0.405 | 0.425 | 0.433 | 0.219 | 0.175 | 1.25
13 | NCI-H661 | 0.779 | 0.531 | 0.338 | 0.346 | 0.513 | 0.474 | 0.252 | 0.295 | 0.545 | 0.782 | 0.426 | 0.748 | 0.707 | 0.655 | 0.443 | 0.862 | 0.355 | 0.307 | 0.26 | 0.556
14 | NCI-H727 | 0.824 | 0.508 | 0.351 | 0.306 | 0.211 | 0.16 | 0.199 | 0.23 | 0.612 | 0.459 | 0.463 | 0.768 | 0.584 | 0.461 | 0.52 | 0.423 | 0.467 | 0.314 | 0.245 | 0.48
15 | NCI-H838 | 0.777 | 0.228 | 0.184 | 0.231 | 1.01 | 0.247 | 0.217 | 0.197 | 1 | 1.09 | 0.855 | 0.421 | 0.474 | 0.359 | 0.319 | 0.302 | 0.255 | 0.222 | 0.188 | 0.962
16 | NCI-H1355 | 1.15 | 1.13 | 1.23 | 0.287 | 0.807 | 0.649 | 0.273 | 0.167 | – | 0.685 | 0.518 | 0.382 | 0.387 | 0.325 | 0.296 | 0.634 | 0.727 | 0.296 | 0.273 | 0.742
